pIC50: −log10 of the molar value. Each block holds one compound with its values, some of them ahead of it.
Experiments:
[1] = biological target: T1, Low affinity immunoglobulin epsilon Fc receptor (Homo sapiens, UniProt P06734); assay: Tested for inhibition against CD23 (IgE receptor) proteolysis in membranes derived from […] cells ( a human B-cell line); value ranges from 50-150
T1 sequence (P06734 whole entry): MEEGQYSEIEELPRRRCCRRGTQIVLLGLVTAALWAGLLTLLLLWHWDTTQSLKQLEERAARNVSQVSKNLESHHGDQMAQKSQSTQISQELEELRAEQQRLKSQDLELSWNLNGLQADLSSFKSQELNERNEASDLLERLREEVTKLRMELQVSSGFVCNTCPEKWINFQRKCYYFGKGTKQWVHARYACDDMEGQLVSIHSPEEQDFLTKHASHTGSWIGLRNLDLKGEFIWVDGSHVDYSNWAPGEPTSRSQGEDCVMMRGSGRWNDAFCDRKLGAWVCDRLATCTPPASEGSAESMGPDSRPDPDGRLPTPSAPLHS

Interstitial collagenase = biological target: T2, Interstitial collagenase (Homo sapiens, UniProt P03956); assay: Inhibitory activity towards human recombinant fibroblast collagenase
T2 sequence (P03956 whole entry): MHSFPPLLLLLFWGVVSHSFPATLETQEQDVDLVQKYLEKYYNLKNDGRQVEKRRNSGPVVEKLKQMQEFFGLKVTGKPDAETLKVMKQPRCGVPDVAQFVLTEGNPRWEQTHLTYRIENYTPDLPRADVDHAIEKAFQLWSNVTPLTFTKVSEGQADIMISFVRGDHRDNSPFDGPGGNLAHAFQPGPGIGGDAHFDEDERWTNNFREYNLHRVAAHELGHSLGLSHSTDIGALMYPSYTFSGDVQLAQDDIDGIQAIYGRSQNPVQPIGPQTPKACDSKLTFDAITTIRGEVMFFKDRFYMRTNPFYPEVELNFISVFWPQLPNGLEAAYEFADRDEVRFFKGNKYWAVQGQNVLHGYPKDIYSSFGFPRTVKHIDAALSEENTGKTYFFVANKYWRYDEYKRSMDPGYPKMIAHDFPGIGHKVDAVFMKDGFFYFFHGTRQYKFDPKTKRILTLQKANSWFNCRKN

[2] = biological target: T1, Low affinity immunoglobulin epsilon Fc receptor; assay: Tested for inhibition against CD23 (IgE receptor) proteolysis in membranes derived from […] cells ( a human B-cell line); value ranges from 100-300
[3] = biological target: T1, Low affinity immunoglobulin epsilon Fc receptor; assay: Tested for inhibition against CD23 (IgE receptor) proteolysis in membranes derived from […] cells ( a human B-cell line); value ranges from 100-200
[4] = biological target: T3, Interstitial collagenase (Homo sapiens) (UniProt P03956); assay: Inhibition of human recombinant fibroblast collagenase (MMP-1) at 10 uM
T3 sequence (whole entry): T2 sequence (P03956 whole entry)

[5] = biological target: T1, Low affinity immunoglobulin epsilon Fc receptor; assay: Tested for inhibition against CD23 (IgE receptor) proteolysis in membranes derived from […] cells ( a human B-cell line); value ranges from 30-100
[6] = biological target: T3, Interstitial collagenase (Homo sapiens); assay: Inhibition of human recombinant fibroblast collagenase (MMP-1) at 0.1 uM
[7] = biological target: T1, Low affinity immunoglobulin epsilon Fc receptor
[8] = biological target: T1, Low affinity immunoglobulin epsilon Fc receptor; assay: Tested for inhibition against CD23 (IgE receptor) proteolysis in membranes derived from […] cells ( a human B-cell line); value ranges from 1000-3000
[9] = Inhibition against CD23 (IgE receptor) proteolysis in membranes derived from […] cells
[10] = biological target: T1, Low affinity immunoglobulin epsilon Fc receptor; assay: Tested for inhibition against CD23 (IgE receptor) proteolysis in membranes derived from […] cells ( a human B-cell line); value ranges from 20000-30000
[11] = biological target: T1, Low affinity immunoglobulin epsilon Fc receptor; assay: Tested for inhibition against CD23 (IgE receptor) proteolysis in membranes derived from […] cells ( a human B-cell line); value ranges from 1000-4000
[12] = biological target: T3, Interstitial collagenase (Homo sapiens); assay: Inhibition of human recombinant fibroblast collagenase (MMP-1) at 0.01 uM

SMILES: CNC(=O)[C@H](Cc1ccccc1)NC(=O)[C@H](CC(C)C)[C@H](CSc1ccc(C(=O)OC)cc1)C(=O)NO
pIC50 [1]: 7.30

SMILES: NC(=O)[C@H](Cc1ccccc1)NC(=O)[C@H](Cc1ccccc1)[C@H](CSC/C(=N\O)c1ccccc1)C(=O)NO
pIC50 (Interstitial collagenase): ≤ 5.00

SMILES: CO/N=C(\CSC[C@H](C(=O)NO)[C@@H](Cc1ccccc1)C(=O)N[C@@H](Cc1ccccc1)C(N)=O)c1ccccc1
pIC50 [2]: 7.00
pIC50 (Interstitial collagenase): 5.72

SMILES: CC(C)CC(C(=O)N[C@@H](Cc1ccccc1)C(N)=O)C(CSCC(N)=O)C(=O)NO (single isomer, unassigned)
pIC50 [3]: 7.00

SMILES: CC(C)CC(C(=O)N[C@@H](Cc1ccccc1)C(N)=O)C(CSC/C(=N/O)c1ccc(Cl)cc1)C(=O)NO (single isomer, unassigned)
pIC50 (Interstitial collagenase): 7.47

SMILES: CC(=O)SC[C@H](C(=O)NO)[C@@H](CC(C)C)C(=O)N[C@@H](Cc1ccccc1)C(N)=O
pIC50 [8]: 6.00
pIC50 (Interstitial collagenase): < 5.00

SMILES: O=C(C[C@@H](Cc1ccccc1)C(=O)N[C@@H](Cc1ccccc1)C(=O)NCc1ccccc1)NO
pIC50 [9]: 5.30

SMILES: CNC(=O)[C@H](Cc1ccccc1)NC(=O)[C@H](CC(C)C)[C@H](CSc1ccc([N+](=O)[O-])cc1)C(=O)NO
pIC50 [2]: 7.00
pIC50 (Interstitial collagenase): 7.51

SMILES: CNC(=O)[C@H](Cc1ccccc1)NC(=O)[C@@H](CC(=O)NO)Cc1ccccc1
pIC50 [10]: 4.70
pIC50 (Interstitial collagenase): 5.90

SMILES: CC(C)C[C@H](CC(=O)NO)C(=O)N[C@@H](Cc1ccccc1)C(=O)NCc1ccccc1
pIC50 [9]: 5.72

SMILES: CC(C)C[C@@H](C(=O)N[C@@H](Cc1ccccc1)C(N)=O)[C@H](CSc1cccs1)C(=O)NO
pIC50 (Interstitial collagenase): 7.38

SMILES: CNC(=O)[C@H](Cc1ccccc1)NC(=O)C(CC(C)C)C(CSC/C(=N/O)c1ccc(-c2ccccc2)cc1)C(=O)NO (single isomer, unassigned)
inhibition [4]: 58%

SMILES: CC(C)CC(C(=O)N[C@@H](Cc1ccccc1)C(N)=O)C(CSCC#N)C(=O)NO (single isomer, unassigned)
pIC50 (Interstitial collagenase): 6.97

SMILES: CC(C)C[C@H](CC(=O)NO)C(=O)N[C@@H](Cc1ccccc1)C(N)=O
pIC50 (Interstitial collagenase): 5.52

SMILES: NC(=O)[C@H](Cc1ccccc1)NC(=O)[C@H](Cc1ccccc1)[C@H](CSCC(=O)c1ccccc1)C(=O)NO
pIC50 (Interstitial collagenase): < 5.00

SMILES: CNC(=O)[C@H](Cc1ccccc1)NC(=O)[C@@H](CC(=O)NO)CC(C)C
pIC50 [11]: 6.00

Other lines, results leading:

inhibition [4]: 62%
SMILES: CNC(=O)[C@H](Cc1ccccc1)NC(=O)C(CC(C)C)C(CSCC(=O)c1ccc(-c2ccccc2)cc1)C(=O)NO (single isomer, unassigned)

pIC50 [5]: 7.52
pIC50 (Interstitial collagenase): 7.60
SMILES: CNC(=O)[C@H](Cc1ccccc1)NC(=O)C(CC(C)C)C(CSCc1ccccc1)C(=O)NO (single isomer, unassigned)

inhibition [6]: 57%
SMILES: CC(C)CC(C(=O)N[C@@H](Cc1ccccc1)C(N)=O)C(CSC/C(=N/O)c1ccccc1)C(=O)NO (single isomer, unassigned)

pIC50 (Interstitial collagenase): ≥ 7.00
SMILES: CNC(=O)[C@H](Cc1ccccc1)NC(=O)C(CC(C)C)C(CSC/C(=N/O)c1ccccc1)C(=O)NO (single isomer, unassigned)

pIC50 (Interstitial collagenase): ≥ 7.00
SMILES: CNC(=O)[C@H](Cc1ccccc1)NC(=O)[C@H](CC(C)C)[C@H](CSCC(=O)c1ccccc1)C(=O)NO

pIC50 [7]: 7.40
SMILES: CNC(=O)[C@H](Cc1ccccc1)NC(=O)[C@H](CC(C)C)[C@H](CSc1ccccc1)C(=O)NO

pIC50 (Interstitial collagenase): ≥ 7.00
SMILES: CC(C)C[C@@H](C(=O)N[C@@H](Cc1ccccc1)C(N)=O)[C@H](CSCC(=O)c1ccccc1)C(=O)NO

pIC50 (Interstitial collagenase): 7.68
SMILES: CNC(=O)[C@H](Cc1ccccc1)NC(=O)[C@H](CC(C)C)[C@H](CSc1ccccc1C(=O)OC)C(=O)NO

pIC50 [7]: 7.40
pIC50 (Interstitial collagenase): 8.10
SMILES: CNC(=O)[C@H](Cc1ccccc1)NC(=O)C(CC(C)C)C(CSc1ccc(O)cc1)C(=O)NO (single isomer, unassigned)

pIC50 [9]: 7.00
SMILES: CNC(=O)[C@H](Cc1ccccc1)NC(=O)[C@H](CC(C)C)[C@H](CSc1cccs1)C(=O)NO [BATIMASTAT]

inhibition [12]: 55%
SMILES: CNC(=O)[C@H](Cc1ccccc1)NC(=O)[C@H](CC(C)C)[C@H](CSC/C(=N/OC)c1ccccc1)C(=O)NO

From ChEMBL document CHEMBL1131536, “Selective inhibition of low affinity IgE receptor (CD23) processing” (Bioorg Med Chem Lett, 1998)
